≈ marks a conversion by molar mass, not a printed value.
Legend:
physchem [1] = experiment: physchem
physchem [2] = experiment: physchem; remark: listed apart in the source
in vitro [3] = details: human
in vitro [4] = details: human, plasma
in vitro [5] = details: SD, HW or BN, rat, plasma
physchem [6] = details: pH 7.4 buffer
physchem [7] = details: octan-1-ol/water, pH 7.4, LogD7.4
in vitro [8] = details: hepatocytes
in vitro [9] = details: human, hepatocytes

OCc1ccnc2c(O)cccc12
pKa (physchem [1]): 4.64
pKa (physchem [2]): 9.45

CCC(=O)NC(c1cccs1)c1cc(Cl)c2cccnc2c1O (stereo unspecified)
pKa (physchem [1]): 2.5
microsomal CLint (in vitro [3]; microsomes): 21.4 µL/min/mg
pKa (physchem [2]): 8.19

CN(C)C1CCc2c(ccc(O)c2O)C1 (stereo unspecified)
pKa (physchem [1]): 10.5
pKa (physchem [2]): 8.85

NC1CCc2c(ccc(O)c2O)C1 (stereo unspecified)
pKa (physchem [1]): 10.5
pKa (physchem [2]): 8.9

Cc1cc(CN2Cc3ccccc3C2C(=O)Nc2ccc(Cl)cc2Cl)ccc1OCC(=O)O (stereo unspecified)
fraction unbound at 5 h (in vitro [4]; PPB): 0.0013
pKa (physchem [1]): 5.6
fraction unbound at 5 h (in vitro [5]): 0.0014
solubility thermodynamic (physchem [6]): 479 µM (≈ 232 µg/mL)
pKa (physchem [2]): 3.1
logD (physchem [7]): 2.62

O=C(O)COc1ccc(Cl)cc1CN1CCCN(S(=O)(=O)Cc2ccccc2)CC1
fraction unbound at 5 h (in vitro [4]; PPB): 0.157
pKa (physchem [1]): 8.3
pKa (physchem [2]): 3.4

O=C(Nc1ccc(N2CCOCC2)c(F)c1)c1nnc(Nc2ccccc2F)o1
pKa (physchem [1]): 6.17
solubility thermodynamic (physchem [6]): 1.3 µM (≈ 0.522 µg/mL)
pKa (physchem [2]): 8.61
logD (physchem [7]): 3.6

Cc1ccc2c(c1)c(-c1ccnc3c(C(F)(F)F)cccc13)c(C)n2CC(=O)O
fraction unbound at 5 h (in vitro [4]; PPB): 0.0038
pKa (physchem [1]): 3.5
pKa (physchem [2]): 2.4
logD (physchem [7]): 1.27

O=C(O)c1cccc(N2CCC(CN3CCC(Oc4ccc(Cl)c(Cl)c4)CC3)CC2)c1
pKa (physchem [1]): 8.7
microsomal CLint (in vitro [3]; liver microsomes): 6 µL/min/mg
solubility thermodynamic (physchem [6]): 141 µM (≈ 65.5 µg/mL)
pKa (physchem [2]): 4.3

O=C(O)c1ccc(N2CCC(CN3CCC(Oc4ccc(Cl)c(Cl)c4)CC3)CC2)cc1
pKa (physchem [1]): 8.85
pKa (physchem [2]): 4.55

O=C(O)Cc1cccc(N2CCC(CN3CCC(Oc4ccc(Cl)c(Cl)c4)CC3)CC2)c1
pKa (physchem [1]): 8.9
pKa (physchem [2]): 4.4

O=C(NS(=O)(=O)N1CCC(N2CCC(Oc3ccc(Cl)c(Cl)c3)CC2)CC1)c1ccccc1
pKa (physchem [1]): 8.1
pKa (physchem [2]): 4.3
logD (physchem [7]): 2.14

O=C(O)COc1cccc(C(=O)N2CCC(N3CCC(Oc4ccc(Cl)c(Cl)c4)CC3)CC2)c1
fraction unbound at 5 h (in vitro [4]; PPB): 0.013
pKa (physchem [1]): 8.2
microsomal CLint (in vitro [3]; microsomes): < 3 µL/min/mg
pKa (physchem [2]): 2.9
logD (physchem [7]): 1.09

O=C(O)c1cccc(C(=O)N2CCC(N3CCC(Oc4ccc(Cl)c(Cl)c4)CC3)CC2)c1
fraction unbound at 5 h (in vitro [4]; PPB): 0.0499
pKa (physchem [1]): 8.6
microsomal CLint (in vitro [3]; liver microsomes): < 3 µL/min/mg
pKa (physchem [2]): 3.4
logD (physchem [7]): 1.23

O=C(NS(=O)(=O)c1ccccc1)N1CCC(N2CCC(Oc3ccc(Cl)c(Cl)c3)CC2)CC1
fraction unbound at 5 h (in vitro [4]; PPB): 0.186
pKa (physchem [1]): 8.1
microsomal CLint (in vitro [3]; liver microsomes): < 3 µL/min/mg
pKa (physchem [2]): 3.3
logD (physchem [7]): 1.5

O=C(NS(=O)(=O)c1ccc(F)cc1)N1CCC(N2CCC(Oc3ccc(Cl)c(Cl)c3)CC2)CC1
fraction unbound at 5 h (in vitro [4]; PPB): 0.194
pKa (physchem [1]): 8.45
microsomal CLint (in vitro [3]; microsomes): 11 µL/min/mg
pKa (physchem [2]): 3
logD (physchem [7]): 1.79

O=C(NS(=O)(=O)c1ccc(Cl)cc1)N1CCC(N2CCC(Oc3ccc(Cl)c(Cl)c3)CC2)CC1
fraction unbound at 5 h (in vitro [4]; PPB): 0.329
pKa (physchem [1]): 8.2
microsomal CLint (in vitro [3]; liver microsomes): 5 µL/min/mg
pKa (physchem [2]): 2.5
logD (physchem [7]): 2.59

COc1ccc(S(=O)(=O)NC(=O)N2CCC(N3CCC(Oc4ccc(Cl)c(Cl)c4)CC3)CC2)cc1
fraction unbound at 5 h (in vitro [4]; PPB): 0.0127
pKa (physchem [1]): 8.3
microsomal CLint (in vitro [3]; liver microsomes): < 3 µL/min/mg
pKa (physchem [2]): 3.6
logD (physchem [7]): 1.39

CN(C)c1ccccc1S(=O)(=O)NC(=O)N1CCC(N2CCC(Oc3ccc(Cl)c(Cl)c3)CC2)CC1
fraction unbound at 5 h (in vitro [4]; PPB): 0.0175
pKa (physchem [1]): 8.6
microsomal CLint (in vitro [3]; liver microsomes): 33 µL/min/mg
pKa (physchem [2]): 6.6
logD (physchem [7]): 1.74

Cc1ccc(S(=O)(=O)NC(=O)N2CCC(N3CCC(Oc4ccc(Cl)c(C)c4Cl)CC3)CC2)cc1
fraction unbound at 5 h (in vitro [4]; PPB): 0.179
pKa (physchem [1]): 8.7
microsomal CLint (in vitro [3]; liver microsomes): 3 µL/min/mg
pKa (physchem [2]): 3.2
logD (physchem [7]): 2.2

O=C(NC[C@@H](O)CN1CCC(Oc2ccc(Cl)c(Cl)c2)CC1)c1c[nH]c(=O)cc1C(F)(F)F
pKa (physchem [1]): 7.7
microsomal CLint (in vitro [3]; liver microsomes): 6 µL/min/mg
pKa (physchem [2]): 8.3
logD (physchem [7]): 2.71

Cc1cc(Cl)ccc1OC1CCN(C[C@H](O)CNC(=O)c2c[nH]c(=O)cc2C(F)(F)F)CC1
pKa (physchem [1]): 7.5
microsomal CLint (in vitro [3]; liver microsomes): < 3 µL/min/mg
pKa (physchem [2]): 8.6
logD (physchem [7]): 2.37

Nc1cc(-c2cc(C(F)(F)F)ccc2Oc2cc(F)c(S(=O)(=O)Nc3ncns3)cc2Cl)ccn1
pKa (physchem [1]): 6.4
fraction unbound at 5 h (in vitro [5]): 0.0035
pKa (physchem [2]): 3.18

NC1CCc2cc(O)c(O)cc2C1 (stereo unspecified)
pKa (physchem [1]): 10.5
pKa (physchem [2]): 9.1

Nc1nc(-c2ccccc2)cc(=O)[nH]1
pKa (physchem [1]): 3.45
pKa (physchem [2]): 9.05

NCC1CCC(C(=O)O)CC1 (stereo unspecified)
pKa (physchem [1]): 10
pKa (physchem [2]): 4.9

Nc1nc(O)c(Cl)c(-c2ccccc2)n1
fraction unbound at 5 h (in vitro [4]): 0.0477
pKa (physchem [1]): 2.35
fraction unbound at 5 h (in vitro [5]): 0.0661
pKa (physchem [2]): 7.45

NCC1Cc2c1ccc(O)c2O (stereo unspecified)
pKa (physchem [1]): 8.5
pKa (physchem [2]): 10.4

CCCN(CCC)CCc1ccc(O)c(NC(C)=O)c1
pKa (physchem [1]): 10.8
microsomal CLint (in vitro [3]; liver microsomes): 36 µL/min/mg
pKa (physchem [2]): 8.75

Cc1c(O)nc(N)nc1-c1ccccc1
pKa (physchem [1]): 4.37
pKa (physchem [2]): 9.61

O=C(NCC12CC3CC(CC(C3)C1)C2)c1cc(-n2ncc(=O)[nH]c2=O)ccc1Cl
hepatocyte CLint (in vitro [8]): 15.3 µL/min/1e6 cells
fraction unbound at 5 h (in vitro [5]): 0.0171
microsomal CLint (in vitro [3]; liver microsomes): 83.8 µL/min/mg
hepatocyte CLint (in vitro [9]): 37 µL/min/1e6 cells
pKa (physchem [2]): 6.2
logD (physchem [7]): 2.1

CCOC(=O)[C@H](CCc1ccccc1)N[C@@H](C)C(=O)N1CCC[C@H]1C(=O)O
pKa (physchem [1]): 6.4
pKa (physchem [2]): 3.1

CCCN(CCC)C1CCc2c(O)cccc2C1 (stereo unspecified) [5-OH-DPAT]
pKa (physchem [1]): 10.8
pKa (physchem [2]): 9.25

Nc1ncnc2c1ncn2CCOCP(=O)(O)O [ADEFOVIR]
pKa (physchem [1]): 4.34
pKa (physchem [2]): 7.66

NC1CCN(c2c(F)cc3c(=O)c(C(=O)O)cn(C4CC4)c3c2Cl)C1 (stereo unspecified) [CLINAFLOXACIN]
pKa (physchem [1]): 9.1
pKa (physchem [2]): 5.77

CNCCc1ccc(O)c(O)c1 [DEOXIEPINEPHRINE]
pKa (physchem [1]): 10.9
pKa (physchem [2]): 8.97

CCn1cc(C(=O)O)c(=O)c2cc(F)c(N3CCNCC3)nc21 [ENOXACIN]
fraction unbound at 5 h (in vitro [4]; PPB): 0.656
pKa (physchem [1]): 8.76
pKa (physchem [2]): 6.2
logD (physchem [7]): -0.83

CCc1cccc2c3c([nH]c12)C(CC)(CC(=O)O)OCC3 (stereo unspecified) [ETODOLAC]
hepatocyte CLint (in vitro [9]): 12.9 µL/min/1e6 cells
pKa (physchem [2]): 4.15

CN1CCN(c2c(F)cc3c(=O)c(C(=O)O)cn(CCF)c3c2F)CC1 [FLEROXACIN]
pKa (physchem [1]): 7.91
pKa (physchem [2]): 5.6

COc1c(N2CCNC(C)C2)c(F)cc2c(=O)c(C(=O)O)cn(C3CC3)c12 (stereo unspecified) [GATIFLOXACIN]
pKa (physchem [1]): 9.18
pKa (physchem [2]): 6.05
logD (physchem [7]): -0.82

CO/N=C1\CN(c2nc3c(cc2F)c(=O)c(C(=O)O)cn3C2CC2)CC1CN (stereo unspecified) [GEMIFLOXACIN]
pKa (physchem [1]): 8.6
pKa (physchem [2]): 6.36

CCn1cc(C(=O)O)c(=O)c2cc(F)c(N3CCNC(C)C3)c(F)c21 (stereo unspecified) [LOMEFLOXACIN]
pKa (physchem [1]): 8.87
pKa (physchem [2]): 5.82
logD (physchem [7]): -1.1

COc1c(C)c2c(c(O)c1C/C=C(\C)CCC(=O)OCCN1CCOCC1)C(=O)OC2 [MYCOPHENOLATE MOFETIL]
pKa (physchem [1]): 6.06
solubility thermodynamic (physchem [6]): 87.1 µM (≈ 37.8 µg/mL)
pKa (physchem [2]): 8.01
logD (physchem [7]): 2.26

CCCc1nc(C(C)(C)O)c(C(=O)OCc2oc(=O)oc2C)n1Cc1ccc(-c2ccccc2-c2nnn[nH]2)cc1 [OLMESARTAN MEDOXOMIL]
pKa (physchem [1]): 6.05
pKa (physchem [2]): 4.29

Nc1nc2c(ncn2CCC(CO)CO)c(=O)[nH]1 [PENCICLOVIR]
pKa (physchem [1]): 2.97
pKa (physchem [2]): 9.48

CC(C)(C)c1cc(NC(=O)NCc2ccccc2Sc2ccc3nnc(-c4ccccc4SCCO)n3c2)n(-c2ccc(O)c(Cl)c2)n1 [PF-03715455]
hepatocyte CLint (in vitro [8]): 70.8 µL/min/1e6 cells
fraction unbound at 5 h (in vitro [5]): 0.0013
microsomal CLint (in vitro [3]; liver microsomes): > 150 µL/min/mg
hepatocyte CLint (in vitro [9]): 25.1 µL/min/1e6 cells
pKa (physchem [2]): 7.17

COC(=O)c1cc2nc([S+]([O-])Cc3ncccc3C)[nH]c2cc1C (stereo unspecified) [PICOPRAZOLE]
pKa (physchem [1]): 3.5
pKa (physchem [2]): 8.1

CCCN(CCC)CCc1ccc(O)c2c1CC(=O)N2 [SKF-89124A]
pKa (physchem [1]): 10.2
pKa (physchem [2]): 8.35

[O-][S+](Cc1ccccn1)c1nc2ccccc2[nH]1 (stereo unspecified) [TIMOPRAZOLE]
pKa (physchem [1]): 3.1
pKa (physchem [2]): 8.8

— ChEMBL document CHEMBL3301361, “Experimental in vitro DMPK and physicochemical data on a set of publicly disclosed compounds”
